According to US20180237441A1, “Chemical Compounds” (GlaxoSmithKline Intellectual Property (No.2) Limited, priority 2015, published 2018):

What follows are compounds tested against T1, PERK (Homo sapiens, UniProt Q9NZJ5) (assay: PERK enzyme assay (HTRF)). Settings: 500 μM ATP; at least one experimental run; read-out: PERK Enzyme (500 μM ATP) IC50.
T1 sequence (Q9NZJ5 30-1116): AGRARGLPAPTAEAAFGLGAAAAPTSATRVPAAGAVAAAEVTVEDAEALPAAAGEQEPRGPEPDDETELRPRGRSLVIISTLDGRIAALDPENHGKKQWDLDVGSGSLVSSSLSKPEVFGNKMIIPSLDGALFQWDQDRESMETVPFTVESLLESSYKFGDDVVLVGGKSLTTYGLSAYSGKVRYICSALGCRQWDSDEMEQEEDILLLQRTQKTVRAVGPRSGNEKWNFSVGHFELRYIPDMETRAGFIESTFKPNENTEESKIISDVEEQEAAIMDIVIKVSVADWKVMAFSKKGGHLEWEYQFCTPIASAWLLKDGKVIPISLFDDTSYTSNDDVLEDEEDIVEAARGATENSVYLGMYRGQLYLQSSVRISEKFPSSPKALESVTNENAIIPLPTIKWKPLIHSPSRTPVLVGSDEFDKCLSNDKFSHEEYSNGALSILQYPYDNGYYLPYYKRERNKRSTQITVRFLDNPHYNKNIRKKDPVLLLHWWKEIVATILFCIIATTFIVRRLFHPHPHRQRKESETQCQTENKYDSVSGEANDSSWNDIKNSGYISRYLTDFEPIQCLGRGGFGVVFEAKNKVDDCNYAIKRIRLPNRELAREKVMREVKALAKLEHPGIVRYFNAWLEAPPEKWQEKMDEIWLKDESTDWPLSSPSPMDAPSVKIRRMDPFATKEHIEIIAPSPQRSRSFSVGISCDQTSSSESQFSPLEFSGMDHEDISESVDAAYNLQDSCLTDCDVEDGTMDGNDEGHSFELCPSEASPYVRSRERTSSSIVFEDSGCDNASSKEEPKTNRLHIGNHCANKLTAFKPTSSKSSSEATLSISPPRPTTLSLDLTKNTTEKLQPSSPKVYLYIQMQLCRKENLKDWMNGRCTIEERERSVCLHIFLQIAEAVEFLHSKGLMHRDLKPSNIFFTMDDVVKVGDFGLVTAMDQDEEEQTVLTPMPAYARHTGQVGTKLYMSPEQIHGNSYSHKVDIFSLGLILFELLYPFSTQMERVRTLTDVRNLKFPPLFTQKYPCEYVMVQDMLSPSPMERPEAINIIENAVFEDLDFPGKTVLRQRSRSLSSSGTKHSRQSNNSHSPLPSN
Format: biochemical
Description: Compounds of the invention were assayed for PERK enzyme inhibitory activity with modifications to previously reported conditions (Axten et al. J. Med. Chem., 2012, 55, 7193-7207). Briefly, various concentrations of compounds (maximum 1% DMSO) were dispensed into 384-well plates containing GST-PERK enzyme. After 30-60 minutes of compound pre-incubation, ATP and biotin-eIF2α were added and after 60 minutes the reaction was quenched. After 2 hrs, a fluorescence plate reader was used to measure inhibition and IC50s were calculated.
Enzyme Assay Protocol for PKR-Like Endoplasmic Reticulum Kinase (PERK)—HTRF —% Inhibition
Assay Buffer contains HEPES (pH7.5) 10 mM, CHAPS 2 mM, MgCl2 5 mM and DTT 1 mM in water
Detection Buffer contains HEPES (pH7.5) 10 mM and CHAPS 2 mM in water Assay Plate Preparation:
1. Enzyme Preparation: • 4× Enzyme solution was prepared immediately prior to adding to compound plates. • 3 nM of GST-PERK in Assay buffer. Final [PERK] in 10 μl assay volume=0.75 nM
2. Substrate Preparation: • 4× Substrate solution was prepared immediately prior to adding to compound plates. • 4× Substrate solution in assay buffer 2000 μM ATP and 160 nM Biotin-eIF2α • Final [ATP] in 10 μl assay volume=500 μM • Final [biotin-eIF2a] in 10 μl assay volume=40 nM.
3. Quench/Detection Solution: • 16 nM eIF2 Phospho-Antibody • 16 nM Eu anti-Rabbit IgG • 160 nM Streptavidin-APC • 60 mM EDTA • Final concentration in 10 μL assay volume: 4 nM eIF2 Phospho-Antibody, 4 nM Eu anti-Rabbit IgG 40 nM Streptavidin-APC
The activity of compounds in the PERK enzyme assay was determined at PERK Enzyme (500 μM ATP) IC50 (nM).

Row | Structure (SMILES) | IC50
1 | CCN1C(=O)N(c2ccc(-c3cn(C)c4ncnc(N)c34)c(F)c2)CC1c1cc(F)cc(F)c1 (single isomer, unassigned) [Example 172, 1-(4-(4-amino-7-methyl-7H-pyrrolo[2,3-d]pyrimidin-5-yl)-3-fluorophenyl)-4-(3,5-difluorophenyl)-3-ethylimidazolidin-2-one] | 30.1 nM
2 | CC(C)CN1C(=O)N(c2ccc(-c3cn(C)c4ncnc(N)c34)c(F)c2)CC1c1cc(F)ccc1F (stereo not drawn) [Example 14, 1-(4-(4-amino-7-methyl-7H-pyrrolo[2,3-d]pyrimidin-5-yl)-3-fluorophenyl)-4-(2,5-difluorophenyl)-3-isobutylimidazolidin-2-one] | 903 nM
3 | CCN1C(=O)N(c2ccc(-c3cn(C)c4ncnc(N)c34)c(F)c2)CC1c1cc(F)ccc1F (single isomer, unassigned) [Example 2, 1-(4-(4-amino-7-methyl-7H-pyrrolo[2,3-d]pyrimidin-5-yl)-3-fluorophenyl)-4-(2,5-difluorophenyl)-3-ethylimidazolidin-2-one] | 77.4 nM
4 | Cc1nc(N)c2c(-c3ccc(N4CC(c5ccc(F)cc5)N(C)C4=O)cc3F)cn(C)c2n1 (single isomer, unassigned) [Example 70, 1-(4-(4-amino-2,7-dimethyl-7H-pyrrolo[2,3-d]pyrimidin-5-yl)-3-fluorophenyl)-4-(4-fluorophenyl)-3-methylimidazolidin-2-one] | 18.6 nM

Same assay, conditions: PERK Enzyme (500 μM ATP) IC50; at least one experimental run; read-out: PERK Activity

Row | Structure (SMILES) | IC50
5 | Cc1cc(N2CC(c3cc(F)cc(F)c3)N(C)C2=O)ccc1-c1cn(C2CC2)c2ncnc(N)c12 (stereo not drawn) [Example 119, 1-(4-(4-amino-7-cyclopropyl-7H-pyrrolo[2,3-d]pyrimidin-5-yl)-3-methylphenyl)-4-(3,5-difluorophenyl)-3-methylimidazolidin-2-one] | < 100 nM
6 | CN1C(=O)N(c2ccc(-c3cn(C)c4ncnc(N)c34)c(F)c2)CC1c1cc(F)cc(F)c1F (single isomer, unassigned) [Example 141, 1-(4-(4-amino-7-methyl-7H-pyrrolo[2,3-d]pyrimidin-5-yl)-3-fluorophenyl)-3-methyl-4-(2,3,5-trifluorophenyl)imidazolidin-2-one] | 100 to 1000 nM
7 | Cc1nc(N)c2c(-c3ccc(N4CC(c5cc(F)cc(F)c5)N(C)C4=O)cc3F)cn(C)c2n1 (single isomer, unassigned) [Example 104, 1-(4-(4-amino-2,7-dimethyl-7H-pyrrolo[2,3-d]pyrimidin-5-yl)-3-fluorophenyl)-4-(3,5-difluorophenyl)-3-methylimidazolidin-2-one] | < 100 nM
8 | CCN1C(=O)N(c2ccc(-c3cn(C4CC4)c4ncnc(N)c34)c(F)c2)CC1c1cc(F)cc(F)c1 (single isomer, unassigned) [Example 174, 1-(4-(4-amino-7-cyclopropyl-7H-pyrrolo[2,3-d]pyrimidin-5-yl)-3-fluorophenyl)-4-(3,5-difluorophenyl)-3-ethylimidazolidin-2-one] | < 100 nM
9 | CCN1C(=O)N(c2ccc(-c3cn(C)c4ncnc(N)c34)c(F)c2)CC1c1cc(F)cc(F)c1 (single isomer, unassigned) [Example 172, 1-(4-(4-amino-7-methyl-7H-pyrrolo[2,3-d]pyrimidin-5-yl)-3-fluorophenyl)-4-(3,5-difluorophenyl)-3-ethylimidazolidin-2-one] | < 100 nM
10 | CN1C(=O)N(c2ccc(-c3cn(C4CC4)c4ncnc(N)c34)c(F)c2)CC1c1cc(F)ccc1F (single isomer, unassigned) [Example 145, 1-(4-(4-amino-7-cyclopropyl-7H-pyrrolo[2,3-d]pyrimidin-5-yl)-3-fluorophenyl)-4-(2,5-difluorophenyl)-3-methylimidazolidin-2-one] | < 100 nM
11 | Cc1nc(N)c2c(-c3ccc(N4CC(c5ccc(F)cc5F)N(C)C4=O)cc3F)nn(C)c2n1 (single isomer, unassigned) [Example 12, 1-(4-(4-amino-1,6-dimethyl-1H-pyrazolo[3,4-d]pyrimidin-3-yl)-3-fluorophenyl)-4-(2,4-difluorophenyl)-3-methylimidazolidin-2-one] | < 100 nM
12 | CCN1C(=O)N(c2ccc(-c3cn(C4CC4)c4ncnc(N)c34)c(F)c2)CC1c1cc(F)cc(F)c1 (stereo not drawn) [Example 170, 1-(4-(4-amino-7-cyclopropyl-7H-pyrrolo[2,3-d]pyrimidin-5-yl)-3-fluorophenyl)-4-(3,5-difluorophenyl)-3-ethylimidazolidin-2-one] | < 100 nM
13 | CN1C(=O)N(c2ccc(-c3cn(C)c4ncnc(N)c34)c(F)c2)CC1c1cc(F)c(F)cc1F (stereo not drawn) [Example 156, 1-(4-(4-amino-7-methyl-7H-pyrrolo[2,3-d]pyrimidin-5-yl)-3-fluorophenyl)-3-methyl-4-(2,4,5-trifluorophenyl)imidazolidin-2-one] | < 100 nM
14 | CCN1C(=O)N(c2ccc(-c3cn(C(C)C)c4ncnc(N)c34)c(F)c2)CC1c1cc(F)ccc1F (stereo not drawn) [Example 106, 1-(4-(4-amino-7-isopropyl-7H-pyrrolo[2,3-d]pyrimidin-5-yl)-3-fluorophenyl)-4-(2,5-difluorophenyl)-3-ethylimidazolidin-2-one] | 100 to 1000 nM
15 | Cc1nc(C2CN(c3ccc(-c4cn(C)c5ncnc(N)c45)c(F)c3)C(=O)N2C)ccc1F (stereo not drawn) [Example 112, 1-(4-(4-amino-7-methyl-7H-pyrrolo[2,3-d]pyrimidin-5-yl)-3-fluorophenyl)-4-(5-fluoro-6-methylpyridin-2-yl)-3-methylimidazolidin-2-one] | 100 to 1000 nM
16 | CC(C)CN1C(=O)N(c2ccc(-c3cn(C)c4ncnc(N)c34)c(F)c2)CC1c1cc(F)ccc1F (stereo not drawn) [Example 14, 1-(4-(4-amino-7-methyl-7H-pyrrolo[2,3-d]pyrimidin-5-yl)-3-fluorophenyl)-4-(2,5-difluorophenyl)-3-isobutylimidazolidin-2-one] | 100 to 1000 nM
17 | CN1C(=O)N(c2ccc(-c3cn(C4CC4)c4ncnc(N)c34)c(Cl)c2)CC1c1cc(F)cc(F)c1 (stereo not drawn) [Example 122, 1-(4-(4-amino-7-cyclopropyl-7H-pyrrolo[2,3-d]pyrimidin-5-yl)-3-chlorophenyl)-4-(3,5-difluorophenyl)-3-methylimidazolidin-2-one] | < 100 nM
18 | CN1C(=O)N(c2ccc(-c3cn(C)c4ncnc(N)c34)c(F)c2)CC1C1CCCCC1 (stereo not drawn) [Example 58, 1-(4-(4-amino-7-methyl-7H-pyrrolo[2,3-d]pyrimidin-5-yl)-3-fluorophenyl)-4-cyclohexyl-3-methylimidazolidin-2-one] | < 100 nM
19 | CN1C(=O)N(c2ccc(-c3cn(C4CC4)c4ncnc(N)c34)c(F)c2)CC1c1cccc(F)c1 (single isomer, unassigned) [Example 125, 1-(4-(4-amino-7-cyclopropyl-7H-pyrrolo[2,3-d]pyrimidin-5-yl)-3-fluorophenyl)-4-(3-fluorophenyl)-3-methylimidazolidin-2-one] | < 100 nM
20 | Cc1nc(N)c2c(-c3ccc(N4CC(c5c(F)ccc(F)c5F)N(C)C4=O)cc3F)cn(C)c2n1 (stereo not drawn) [Example 72, 1-(4-(4-amino-2,7-dimethyl-7H-pyrrolo[2,3-d]pyrimidin-5-yl)-3-fluorophenyl)-3-methyl-4-(2,3,6-trifluorophenyl)imidazolidin-2-one] | 100 to 1000 nM
21 | CN1C(=O)N(c2ccc(-c3cn(C)c4ncnc(N)c34)c(F)c2)CC1c1cc(F)ccc1F (single isomer, unassigned) [Example 150, 1-(4-(4-amino-7-methyl-7H-pyrrolo[2,3-d]pyrimidin-5-yl)-3-fluorophenyl)-4-(2,5-difluorophenyl)-3-methylimidazolidin-2-one] | < 100 nM
22 | CCN1C(=O)N(c2ccc(-c3cn(C)c4ncnc(N)c34)c(F)c2)CC1c1cc(F)ccc1F (single isomer, unassigned) [Example 2, 1-(4-(4-amino-7-methyl-7H-pyrrolo[2,3-d]pyrimidin-5-yl)-3-fluorophenyl)-4-(2,5-difluorophenyl)-3-ethylimidazolidin-2-one] | < 100 nM
23 | Cc1nc(N)c2c(-c3ccc(N4CC(c5ccc(F)cc5)N(C)C4=O)cc3F)cn(C)c2n1 (single isomer, unassigned) [Example 70, 1-(4-(4-amino-2,7-dimethyl-7H-pyrrolo[2,3-d]pyrimidin-5-yl)-3-fluorophenyl)-4-(4-fluorophenyl)-3-methylimidazolidin-2-one] | < 100 nM
24 | Cc1nc(N)c2c(-c3ccc(N4CC(C5CCCCC5)N(C)C4=O)cc3F)cn(C)c2n1 (single isomer, unassigned) [Example 61, 1-(4-(4-amino-2,7-dimethyl-7H-pyrrolo[2,3-d]pyrimidin-5-yl)-3-fluorophenyl)-4-cyclohexyl-3-methylimidazolidin-2-one] | 100 to 1000 nM
